# In ChEMBL document CHEMBL3352684, “Discovery of MK-3697: a selective orexin 2 receptor antagonist (2-SORA) for the treatment of insomnia” (Bioorg Med Chem Lett, 2014):
# Substitutions are numbered along the chain they refer to. Activity calls are given as the source filed them. No cut-off for these calls is given here.
# Legend:
# [1] = Volume of distribution at steady state in dog at 1 mg/kg, iv; assay type: ADME, organism-based, Canis lupus familiaris; parameters: dose 1 mg/kg, route intravenous; settings: in vivo, read-out: Vdss
# [2] = AUC (0 to infinity) in dog at 3 mg/kg, po; assay type: ADME, organism-based, Canis lupus familiaris; parameters: time infinity, dose 3 mg/kg, route oral; settings: plasma
# [3] = Cmax in rat at dog at 3 mg/kg, po; assay type: ADME, organism-based, Canis lupus familiaris; parameters: dose 3 mg/kg, route oral; settings: in vivo
# [4] = species: Canis lupus familiaris; assay: Antagonist activity at dog OX1R by FLIPR assay
# [5] = Lipophilicity, log D of the compound; assay type: physicochemical; settings: octanol/water
# [6] = biological target: T1, Orexin receptor type 2 (Homo sapiens, UniProt O43614); assay: Antagonist activity at human OX2R expressed in CHO cells assessed as inhibition of Ala-6,12-orexinA-induced effect after 5 mins by FLIPR assay; assay type: cell-based
# T1 sequence (O43614 whole entry): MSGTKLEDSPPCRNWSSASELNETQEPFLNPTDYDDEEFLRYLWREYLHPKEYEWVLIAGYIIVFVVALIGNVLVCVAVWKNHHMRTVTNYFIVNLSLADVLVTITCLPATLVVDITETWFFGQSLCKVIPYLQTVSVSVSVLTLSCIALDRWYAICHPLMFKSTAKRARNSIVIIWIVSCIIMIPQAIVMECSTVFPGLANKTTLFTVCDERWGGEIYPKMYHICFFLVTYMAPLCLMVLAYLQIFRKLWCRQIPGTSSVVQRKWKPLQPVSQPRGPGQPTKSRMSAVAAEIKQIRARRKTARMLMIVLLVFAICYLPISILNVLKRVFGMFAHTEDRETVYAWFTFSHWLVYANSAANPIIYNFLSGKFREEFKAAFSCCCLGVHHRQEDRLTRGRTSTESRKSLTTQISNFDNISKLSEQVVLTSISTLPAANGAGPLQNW
# [7] = biological target: Cytochrome P450 2D6 (Homo sapiens, UniProt P10635); assay: Reversible inhibition of CYP2D6 (unknown origin); assay type: ADME
# [8] = biological target: Cytochrome P450 2C9 (Homo sapiens, UniProt P11712); assay: Reversible inhibition of CYP2C9 (unknown origin); assay type: ADME
# [9] = Plasma protein binding in human; assay type: ADME, cell-free; settings: read-out: PPB (converted)
# [10] = Drug uptake in mouse CSF at 100 mg/kg, po after 2 hrs; assay type: ADME, organism-based; parameters: dose 100 mg/kg, route oral; settings: cerebrospinal fluid, read-out: Drug uptake
# [11] = Tmax in mouse at 100 mg/kg, po; assay type: ADME, organism-based; parameters: dose 100 mg/kg, route oral; settings: in vivo
# [12] = system: Canis familiaris; assay: Increase in rapid eye movement sleep in dog at 3 mg/kg, po after 3.5 hrs; assay type: functional, organism-based; parameters: dose 3 mg/kg; settings: Canis lupus familiaris
# [13] = system: Rattus norvegicus; assay: Increase in slow wave sleep in Sprague-Dawley rat at 15 mg/kg, po after 2 hrs; assay type: functional, organism-based; parameters: dose 15 mg/kg
# [14] = system: Mus musculus; assay: Reduction in active wake sleep in OX2R-knockout mouse at 100 mg/kg, po after 2 hrs; assay type: functional, organism-based; parameters: dose 100 mg/kg
# [15] = Volume of distribution at steady state in rat at 2 mg/kg, iv; assay type: ADME, organism-based; parameters: dose 2 mg/kg, route intravenous; settings: in vivo, read-out: Vdss
# [16] = Tmax in Sprague-Dawley rat at 15 mg/kg, po; assay type: ADME, organism-based; parameters: dose 15 mg/kg, route oral; settings: in vivo
# [17] = biological target: T1, Orexin receptor type 2; assay: Displacement of (S)-N-(2-(1H-pyrrol-1-yl)phenyl)-1-(2-([3H]-1-methyl-1H-benzo[d]imidazol-2-ylthio)acetyl)pyrrolidine-2-carboxamide from human OX2R expressed in CHO cells after 3 hrs by topcount analysis; assay type: cell-based
# [18] = Oral bioavailability in rat at 5 mg/kg; assay type: ADME, organism-based; settings: in vivo
# [19] = system: Rattus norvegicus; assay: Reduction in active wake sleep in Sprague-Dawley rat at 15 mg/kg, po after 2 hrs; assay type: functional, organism-based; parameters: dose 15 mg/kg
# [20] = Apparent permeability of the compound; assay type: physicochemical; settings: not told
# [21] = Clearance in rat at 2 mg/kg, iv; assay type: ADME, organism-based; parameters: dose 2 mg/kg, route intravenous; settings: in vivo
# [22] = Drug uptake in dog CSF at 3 mg/kg, po; assay type: ADME, organism-based, Canis lupus familiaris, Cerebrospinal fluid; parameters: dose 3 mg/kg, route oral; settings: in vivo, read-out: Drug uptake
# [23] = species: Rattus norvegicus; assay: Ex vivo receptor occupancy at human OX2R expressed in transgenic rat at CSF concentration of 40 nM; assay type: functional
# [24] = Tmax in rat at 5 mg/kg, po; assay type: ADME, organism-based; parameters: dose 5 mg/kg, route oral; settings: in vivo
# [25] = biological target: T2, Orexin/Hypocretin receptor type 1 (Mus musculus) (UniProt P58307); assay: Antagonist activity at mouse OX1R by FLIPR assay
# T2 sequence (whole entry): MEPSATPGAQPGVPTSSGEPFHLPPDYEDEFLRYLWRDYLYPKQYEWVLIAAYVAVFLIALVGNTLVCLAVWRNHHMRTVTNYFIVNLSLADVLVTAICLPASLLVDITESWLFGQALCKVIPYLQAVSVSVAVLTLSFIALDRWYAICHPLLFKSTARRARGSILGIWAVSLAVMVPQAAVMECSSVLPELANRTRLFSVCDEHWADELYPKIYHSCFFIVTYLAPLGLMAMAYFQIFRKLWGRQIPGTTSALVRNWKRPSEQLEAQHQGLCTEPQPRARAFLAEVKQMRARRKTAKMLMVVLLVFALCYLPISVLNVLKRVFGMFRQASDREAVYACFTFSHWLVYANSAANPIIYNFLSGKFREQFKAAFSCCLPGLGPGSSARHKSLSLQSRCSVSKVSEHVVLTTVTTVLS
# [26] = Tmax in rat at dog at 3 mg/kg, po; assay type: ADME, organism-based, Canis lupus familiaris; parameters: dose 3 mg/kg, route oral; settings: in vivo
# [27] = Half life in rat at 2 mg/kg, iv; assay type: ADME, organism-based; parameters: dose 2 mg/kg, route intravenous; settings: in vivo
# [28] = biological target: T3, Orexin/Hypocretin receptor type 1 (Rattus norvegicus) (UniProt P56718); assay: Antagonist activity at Sprague-Dawley rat OX1R by FLIPR assay
# T3 sequence (whole entry): T2 sequence (whole entry) with Q116H, H205R, I221F, A232G, R245P, G383S
# [29] = system: Canis familiaris; assay: Reduction in active wake sleep in dog at 3 mg/kg, po after 2 hrs; assay type: functional, organism-based; parameters: dose 3 mg/kg; settings: Canis lupus familiaris
# Chain of Cytochrome P450 2C9 (P11712 whole entry): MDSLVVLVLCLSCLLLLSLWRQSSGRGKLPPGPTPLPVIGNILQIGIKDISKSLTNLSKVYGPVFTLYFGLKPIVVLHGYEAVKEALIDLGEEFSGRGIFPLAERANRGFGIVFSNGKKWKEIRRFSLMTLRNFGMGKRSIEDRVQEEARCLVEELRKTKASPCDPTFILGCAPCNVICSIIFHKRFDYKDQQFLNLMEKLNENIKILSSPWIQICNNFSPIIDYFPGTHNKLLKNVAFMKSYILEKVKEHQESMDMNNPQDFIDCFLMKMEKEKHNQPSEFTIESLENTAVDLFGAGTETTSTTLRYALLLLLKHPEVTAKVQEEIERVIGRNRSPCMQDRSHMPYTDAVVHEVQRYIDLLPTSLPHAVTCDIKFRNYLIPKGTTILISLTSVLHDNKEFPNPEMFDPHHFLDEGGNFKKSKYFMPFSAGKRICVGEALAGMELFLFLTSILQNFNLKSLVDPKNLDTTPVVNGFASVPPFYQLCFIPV
# Chain of Cytochrome P450 2D6 (P10635 whole entry): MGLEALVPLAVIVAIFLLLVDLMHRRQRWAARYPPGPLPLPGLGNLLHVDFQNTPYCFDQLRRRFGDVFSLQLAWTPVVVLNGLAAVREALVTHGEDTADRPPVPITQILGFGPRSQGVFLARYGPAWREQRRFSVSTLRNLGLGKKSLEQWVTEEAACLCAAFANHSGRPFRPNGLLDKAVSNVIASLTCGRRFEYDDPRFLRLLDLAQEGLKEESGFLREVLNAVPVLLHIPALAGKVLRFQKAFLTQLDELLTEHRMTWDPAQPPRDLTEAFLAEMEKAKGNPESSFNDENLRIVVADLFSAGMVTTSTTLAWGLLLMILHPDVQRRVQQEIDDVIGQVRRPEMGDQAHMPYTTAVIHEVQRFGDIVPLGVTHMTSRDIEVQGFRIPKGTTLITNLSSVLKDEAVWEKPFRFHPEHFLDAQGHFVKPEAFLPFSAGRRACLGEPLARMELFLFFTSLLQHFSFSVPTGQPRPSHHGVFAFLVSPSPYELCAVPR
smiles,measurement,setting,value
COc1ccc(CNC(=O)c2cc(-c3cncc(C)c3)ncc2-c2nccs2)nc1OC,Vd,[1],0.7 L/kg
same,AUC(0-inf),[2],7.5 µM·h
same,Cmax,[3],2100 nM
same,INH,[4],10 µM
same,logD,[5],1.9
same,IC50,[6],16 nM
same,IC50,[7],> 50000 nM
same,IC50,[8],> 50000 nM
same,fraction unbound,[9],0.04
same,concentration at 2 h,[10],4900 nM
same,Tmax,[11],120 min
same,Activity,[12],Active
same,Activity,[13],Active
same,Activity,[14],inactive
same,Vd,[15],1.2 L/kg
same,Tmax,[16],48 min
same,Ki,[17],1.1 nM
same,bioavailability,[18],64%
same,Activity,[19],Active
same,Papp,[20],33 ×10⁻⁶ cm/s
same,clearance,[21],40.7 mL/min/kg
same,concentration,[22],460 nM
same,Occ,[23],90%
same,Tmax,[24],18 min
same,INH,[25],27.2 µM
same,Tmax,[26],42 min
same,half-life,[27],24 min
same,INH,[28],36.4 µM
same,Activity,[29],Active
